The record followed here is patent publication US20100135992A1, “Prolongation of Survival of an Allograft by Inhibiting Complement Activity” (Alexion Pharmaceuticals, Inc., priority 2006, published 2010).

For experiment [1], the system named is C3H heart allografts in presensitized BALB/c mice. Kind of experiment: Heart allograft survival, accelerated rejection in presensitized model (Example 4). The experiment is classed as in vivo, mouse. The settings on record: presensitized recipients. An excerpt: In these experiments, the presensitization was brought about by prior transplantation of a skin graft. In general, presensitization can occur not only as a result of having received an earlier allograft, but can also be caused by having received multiple blood transfusions or in women who have been pregnant. Besides such presensitization methods, allografts with an ABO mismatch will be rapidly attacked and rejected because of preformed antibodies to the ABO antigens unless steps are taken to prevent such an attack.
This model is designed to mimic presensitized transplantation in humans, especially in relation to accelerated humoral rejection. Recipient mice were split into eight groups of six to eight mice each. The treatments were as follow.
Group 3″ (BB5.1 alone)—mice were administered the anti-mouse complement monoclonal antibody BB5.1 at a dose of 40 mg/kg body weight delivered intraperitoneally on a daily basis beginning at day −1 and continuing until the endpoint.
Group 4″ (cyclophosphamide alone)—mice were administered cyclophosphamide intravenously at a dose of 40 mg/kg body weight on each of days 0 and 1.
Group 6″ (BB5.1 plus cyclophosphamide)—mice were administered BB5.1 intraperitoneally at a dose of 40 mg/kg body weight on a daily basis beginning at day −1 and continuing until the endpoint. […]

Experiment [2] concerns terminal complement activity. Kind of experiment: Complement hemolytic assay of recipient mouse sera (heart model). It counts as in vivo. As to conditions: POD3, presensitized heart recipients, FIG. 3. The protocol: Complement Hemolytic Assay The purified anti-C5 mAb was serially diluted twofold (175-0.1 μg/ml) in GVB^2+ buffer (gelatin Veronal-buffered saline: 0.1% gelatin, 141 mM NaCl, 0.5 mM MgCl2, 0.15 mM CaCl2, and 1.8 mM sodium barbital) and added in triplicate (50 μl/well) to a 96-well plate. BALB/c mouse serum was diluted to 40% v/v with GVB^2+ buffer and added ([…]) to the rows of the same 96-well plate such that the final concentration of BALB/c mouse serum in each well was 20%. The plate was then incubated at room temperature for approximately 30 min while chicken erythrocytes were prepared. Chicken erythrocytes were washed 5×1 ml with GVB^2+ buffer and resuspended to a final concentration of 5×10^7/ml in GVB^2+. Four milliliters of the chicken erythrocytes were sensitized by adding anti-chicken RBC polyclonal antibody (Intercell Technologies, Hopewell, N.J., 0.1% v/v) and the cells were incubated at 4° C. for 15 min with frequent vortexing. The cells were then washed 2×1 ml with GVB^2+ and resuspended to a final volume of 2.4 ml in GVB^2+. […] The plate was read at OD 415 nm using a microplate reader and the percentage of hemolysis was determined using this formula: […]
In the current study, terminal complement activity was measured by assessing the ability of recipient mouse sera to lyse antibody presensitized chicken erythrocytes and was compared at the same time-point (POD3).

Take `O=P1(N(CCCl)CCCl)NCCCO1` (centres unmarked) [CyP, cyclophosphamide]: the “Mean survival time” value in experiment [1] came to 3.3 ± 0.5 days. In addition, the “terminal complement activity (lysis of antibody presensitized chicken erythrocytes by recipient sera)” value in experiment [2] is “no effect”.
